According to US7422862B2, “Methods for identifying modulators of apoptosis” (The Burnham Institute, priority 2001, dated 2008):
d = 2'-deoxy (DNA); r = 2'-OH (RNA)

Key:
Type in all cases: cell-based
endogenous Humanin = assay: siRNA knock-down of endogenous Humanin in SF268 cells (immunoblotting)
Method: (§1) (A-D) CMS14.1 neuronal cells were transfected with plasmids encoding Flag-HN peptide or Flag-control (27-amino-acid) peptide, together with GFP-encoding plasmid at 4:1 ratio. Cells were either cultured without further treatment (open bars) or subjected to various apoptotic stimuli for various times (dark bars), including (A) STS for 8 h (dark symbols=Flag-control; open symbols=Flag-HN), (B) Serum-deprivation for 72 h, (C) 10 joules/m2 Uvirradiation followed by 24 h culture, and (D) 50 ng/ml TNFa in […] for 24 h. Cells were then fixed and stained with DAPI to determine the percentage of apoptotic cells, evaluating=200 GFP-positive cells per sample (mean±SD; n=3). (inset) Lysates prepared from replicate cultures of transfected cells were normalized for total protein content and analyzed by immunoblotting using anti-Flag (top) and anti-tubulin (bottom) antibodies, confirming production of similar amounts of Flag-control and Flag-HN peptides. […] (Upper panel) After 72 hr, cell lysates were prepared and 100 ug was analyzed by immunoblotting using anti-HN and anti-tubulin (as a loading control) antibodies. (Lower panel) At 72 hr after siRNA transfection, SF268 cells were cultured with 0.1 μM STS for 8 hrs, then % apoptosis was determined (mean+std dev; n=3). […] Apoptosis (%) was measured 48 hrs later among GFP-positive cells. […]

SF268 cells = assay: STS-induced apoptosis in siRNA-transfected SF268 cells; settings: 0.1 μM STS 8 hrs
Method: as §1

endogenous Bax protein = assay: Subcellular fractionation and immunoblot of endogenous Bax after STS; settings: SF268 cells, Humanin knocked-down by siRNA
Method: (A-B) Humanin peptide prevents STS-induced Bax translocation in vivo. Cos-7 cells were first transfected with GFP-Bax plasmids. After 24 hrs, untagged wild-type or C8P mutant Humanin peptides were introduced into cells using ChariotTM reagent, and 2 h later cells were treated with 1 μM STS. After 4 h, the percentage of cells with translocated Bax was determined (mean±SD; n=3) by confocal microscopy (A) and representative photomicrographs (B). (C) Wild-type or C8P mutant Humanin peptides were introduced into Cos7 cells using ChariotTM reagent. Cytosolic (C) and mitochondria-containing (M) fractions were isolated by differential centrifugation 23 and analyzed by immunoblotting using anti-Bax (top), Hsp60 (middle) (mitochondrial marker), or Tubulin (bottom) (cytosol marker) antibodies. (D) HN or mutant control double-strand siRNAs were transfected into SF268 cells. After 48 h, cells were cultured without (Control) or with 0.1 uM STS. After 24 hr, cells were fractionated and analyzed by immunoblotting as above. […] After 3 h at 30° C., mitochondria were centrifuged and the resulting pellets (P) and supernatants (S) were analyzed by immunoblotting using anti-Cytochrome c (top), Hsp60 (middle), and Bax (bottom) antibodies. […]
These findings were also confirmed by subcellular fractionation, where cytosol and mitochondria-enriched heavy membrane preparations were prepared from Cos7 cells transduced with untagged Humanin or Humanin(C8P) peptides, and the relative amounts of endogenous Bax protein in these two fractions were measured by immunoblot analysis of samples normalized for cell-equivalents. […] Differences in the relative potency of Humanin at blocking Bax translocation as measured by microscopy (FIG. 7A) versus cell fractionation methods (FIG. 7C) can be explained by differences in the sensitivity of the assays, or could possibly indicate that even in cells where some Bax translocation has occurred, less of the total Bax protein associated with mitochondria. […]

## Humanin siRNA: double-strand siRNA, sense r(CCAGUGAAAUUGACCUGCC)d(TT), SEQ ID NO:25/26 (sense CCAGUGAAAUUGACCUGCCNN; antisense GGCAGGUCAAUUUCACUGGNN; sugars from the 5' end r19 d2, backbone and the base at N not given here)
Endogenous Humanin
  endogenous levels of Humanin peptide: reduced
SF268 cells
  sensitivity to STS-induced apoptosis: increased
Endogenous Bax protein
  STS-induced translocation of Bax to membranes: enhanced
